Tests used:
[1] = biological target: T1, CYP26B1 (Homo sapiens, UniProt Q9NR63); assay: HeLa cell-based inhibitor assay (HeLa-CYP26B1), inhibition of all trans-RA metabolism; settings: CYP26B1 cells; [3H]-RA, 3 hours at 37 °C; Figure 1
T1 sequence (Q9NR63 1-512): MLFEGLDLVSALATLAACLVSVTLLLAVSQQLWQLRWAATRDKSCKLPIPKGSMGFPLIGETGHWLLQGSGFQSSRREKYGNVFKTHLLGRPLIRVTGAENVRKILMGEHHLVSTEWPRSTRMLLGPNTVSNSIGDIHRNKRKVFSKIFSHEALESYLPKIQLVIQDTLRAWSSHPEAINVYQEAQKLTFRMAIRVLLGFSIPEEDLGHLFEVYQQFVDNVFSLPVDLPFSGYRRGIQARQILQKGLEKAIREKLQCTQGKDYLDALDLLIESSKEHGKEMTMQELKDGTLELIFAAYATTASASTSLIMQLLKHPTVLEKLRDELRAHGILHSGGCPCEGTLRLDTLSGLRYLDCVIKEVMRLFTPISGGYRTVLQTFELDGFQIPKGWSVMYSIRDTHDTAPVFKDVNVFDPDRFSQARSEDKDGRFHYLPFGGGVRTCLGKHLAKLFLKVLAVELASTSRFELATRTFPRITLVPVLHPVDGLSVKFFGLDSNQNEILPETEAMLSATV
Protocol: CYP26A1 or CYP26B1 cDNA stably transfected HeLa cells were maintained in Minimum Essential Medium (MEM) containing 10% fetal bovine serum (FBS), 1X antibiotic/antimycotic cocktail, and […] hygromycin. Exponentially growing cells were harvested by incubation in trypsin. Cells were then collected and re-plated in 48-well culture plates at 1.5×10^5 (CYP26A1) or 1.5×10^4 (CYP26B1) cells in 0.2 mL of culture medium containing 0.04µCi [^3H]-RA (retinoic acid) in the presence or absence of increasing concentrations of a test compound. The test compound was diluted in dimethyl sulfoxide (DMSO) and then added in duplicate to wells to 0.01 nM, 0.1 nM, 1 nM, 10 nM, 100 nM, 1 µM, and 10 µM final concentrations. Cells were incubated for 3 hours at 37 °C. Retinoids were then extracted using the procedure of Bligh, et al., (1959), Canadian Journal of Biochemistry 37, 911-917, which was modified by using dichloromethane instead of chloroform. Each sample's water-soluble radioactivity level was quantified using a β-scintillation counter (using Ecolume scintillation fluid, available from MP Biomedicals of Solon, OH, USA). IC50 values represented the concentration of inhibitor required to inhibit all trans-RA metabolism by 50%, and were derived from log transformed data.

[2] = tested on: growth plates of juvenile FVB mice; assay: Long bone growth and growth plate toxicity in juvenile mice; settings: for Mean femur length (cm) / Mean tibia length (cm): oral gavage, P14-P41, juvenile FVB mice; for Mean modified Crural index: ratio of tibia over femur length
Description: A preclinical study was used to evaluate toxicity of various doses of compound 1 versus palovarotene on the growth plates of juvenile FVB mice following once daily (QD) or twice (BID) administration by oral gavage, over the juvenile development period, for 4 weeks (postnatal days 14-42 (P14-P42)). […] Resultant DICOM files were rendered in the RadiAnt viewer to obtain long bone measurements using the program's measuring tool (Figure 8A).

[3] = biological target: T1, CYP26B1; assay: U2OS cell-based inhibitor assay (endogenous CYP26B1); set-up: This assay used a human cell type endogenously expressing the CYP26B1 enzyme; endogenous in cells; host or cells: U2OS, pre-treated with 1 µM RA for 24 hours; settings: U2OS cells pre-treated with 1 µM RA for 24 hours; Figure 4
Protocol: This assay used a human cell type endogenously expressing the CYP26B1 enzyme to test the ability of a compound to block RA metabolism. U2OS cells were grown in McCoy's 5A medium containing 10% fetal bovine serum (FBS) and 1X antibiotic/antimycotic cocktail. Cells grown in a T-175 culture flask at […] were treated with 1 µM RA for 24 hours to induce the expression of the CYP26B1 gene prior to the assay. Following this treatment period, cells were collected by trypsinization, washed twice in PBS, and resuspended in 7 ml of fresh culture medium. These cells were then re-plated in 48-well plates, and the assay was carried out as described for the HeLa-cell based assay.

## CC(C)(C)c1cccc(-c2cc3cc(/C=C/C(=O)O)ccc3[nH]2)c1 [Compound 1, (E)-3-(2-(3-(tert-butyl)phenyl)-1H-indol-5-yl)acrylic acid]
[1]
  IC50: 12.7 nM
[2]; 3mg/kg BID
  Mean femur length (cm): 1.38 ± 0.03 cm
  Mean tibia length (cm): 1.69 ± 0.04 cm
  Mean modified Crural index: 1.23 ± 0.03
[2]; 6mg/kg BID
  Mean femur length (cm): 1.33 ± 0.11 cm
  Mean tibia length (cm): 1.53 ± 0.05 cm
  Mean modified Crural index: 1.15 ± 0.05
[2]; 10mg/kg BID
  Mean femur length (cm): 1.34 ± 0.06 cm
  Mean tibia length (cm): 1.70 ± 0.04 cm
  Mean modified Crural index: 1.27 ± 0.06
[2]; 18mg/kg QD
  Mean femur length (cm): 1.10 ± 0.09 cm
  Mean tibia length (cm): 1.54 ± 0.07 cm
  Mean modified Crural index: 1.40 ± 0.06
[2]; at doses at least equally efficacious as palovarotene, Figures 8A, 8B, 9
  disturbances to the growth of long bones and microarchitecture of the growth plates: not observed
[3]
  IC50: 1.9 nM
